Earlier results, collected in patent publication US20080095831A1, “TOPICAL FORMULATION OF […] […] COMPOSITION FOR PERCUTANEOUS ABSORPTION OF […] ACTIVE AGENT” (priority 2006, published 2008).
Structures can show the parent of a compound that is named as a salt.

Tests used:
[1] = tested on: keloid cells

SMILES	solubility in water (in words)	further results
NC(=O)c1cccnc1 [nicotinamide]	freely soluble	
CN(C)CCC=C1c2ccccc2CCc2ccccc21 [Amitriptline]	freely soluble	
CC(=O)[C@H]1CC[C@H]2[C@@H]3CCC4=CC(=O)CC[C@]4(C)[C@H]3CC[C@]12C [Progesterone]	insoluble	
O=[N+]([O-])O[C@H]1CO[C@H]2[C@@H]1OC[C@H]2O[N+](=O)[O-] [Isosorbide dinitrate]	sparingly soluble	
CC/C(=C(\c1ccccc1)c1ccc(OCCN(C)C)cc1)c1ccccc1 [Tamoxifen citrate]		collagen production [1]: decrease; keloid fibroblast production [1]: inhibit; effect on keloid cells ([1]; concentration of about 0.01%): deadly effect
CCCCC(C)(O)C/C=C/[C@H]1[C@H](O)CC(=O)[C@@H]1CCCCCCC(=O)OC (mixture of isomers) [Misoprostol]	water-soluble	
Clc1cccc(Cl)c1N=C1NCCN1 [clonidine hydrochloride]	freely soluble	
